Source: patent publication US20060009435A1, “Synthesis and powder preparation of fluticasone propionate” (priority 2004, published 2006)
Several values for one entry are separate records, joined by “and”; a condition that tells them apart may be missing. Identical values can stand only once. Entries after “also recorded” stand apart in the source; their conditions may differ. Like-named read-outs stand apart in the source and are kept apart here.

Assays:
Assay type in all cases: physicochemical
[1] = SEM micrograph of particle shape
[2] = Observation of powder flow, agglomeration tendency and electrostatic charge
[3] = Particle size distribution by dynamic light scattering (Malvern Mastersizer 2000); settings: for particle size D(0.10) / particle size D(0.20) / particle size D(0.50) / particle size D(0.80) / particle size D(0.90) / particle size D(0.95) / particle size D(0.98) / particle size D(0.99) / particle size D(1.00): dynamic light scattering; for Particle size distribution D(v, 0.1), 0.1 quantile / Particle size distribution D(v, 0.5), 0.5 quantile / Particle size distribution D(v, 0.9), 0.9 quantile / Particle size distribution D(v, 0.95), 0.95 quantile: light scattering
Method: Particle size was measured on a dynamic light scattering device by Malvern model Mastersizer 2000, using a measuring range of 0.02-2000 μm, accuracy level of 1% at the median, helium neon laser as a red light source, and solid state light source as a blue light source. Particle size distributions are presented as the average particle size of specified percentiles, including the flanking 0.1 and 0.9 quantiles and the median 0.5 quantile of the overall particle size distribution versus volume curve.

[4] = X-ray powder diffraction of the powder (crystalline or amorphous morphology)
Method: X-ray diffraction data were acquired using a PHILIPS X-ray diffractometer model PW1050-70 set at 40 kV, 28 mA, using 1.54178 Å (Kα), diversion slit of 1°, receiving slit of 0.2 mm, scattering slit of 1° and a graphite monochromator.

SMILES | Powder characteristics (flow and morphology of the powder) [2] | Particle size median [3] | particle size D(0.10) [3] | particle size D(0.20) [3] | particle size D(0.50) [3] | particle size D(0.80) [3] | particle size D(0.90) [3] | particle size D(0.95) [3] | particle size D(0.98) [3] | particle size D(0.99) [3] | particle size D(1.00) [3] | Particle size distribution D(v, 0.1), 0.1 quantile [3] | Particle size distribution D(v, 0.5), 0.5 quantile [3] | Particle size distribution D(v, 0.9), 0.9 quantile [3] | Particle size distribution D(v, 0.95), 0.95 quantile [3] | Particle shape (SEM micrograph) [1] | Electrostatic charge of the powder [2] | Tendency to agglomerate [2] | Morphology by X-ray powder diffraction pattern [4] | other results
CCC(=O)O[C@]1(C(=O)SCF)[C@H](C)C[C@H]2[C@@H]3C[C@H](F)C4=CC(=O)C=C[C@]4(C)[C@@]3(F)[C@@H](O)C[C@@]21C [Example 12, fluticasone propionate] |  |  |  |  |  |  |  |  |  |  |  |  |  |  |  | irregular shape of the particles; also recorded: irregular jaggedly shaped particles | tended to accumulate a considerable amount of static charge; also recorded: tended to accumulate a considerable amount of electrostatic charge | generally tended to agglomerate; also recorded: high tendency to agglomerate |  | Particle shape (SEM micrograph) ([1]; listed as Reference Example 12): irregular jaggedly shape; particle size distribution in words ([3]; air-jet milled, data not shown): either too many oversized particles or too many undersized particles; also recorded: unsatisfactory size distribution
CCC(=O)O[C@]1(C(=O)SCF)[C@H](C)C[C@H]2[C@@H]3C[C@H](F)C4=CC(=O)C=C[C@]4(C)[C@@]3(F)[C@@H](O)C[C@@]21C [Example 13, fluticasone propionate] | Free flowing crystalline powder | Particle size median: 2.21 microns | 0.95 micron | 1.31 micron | 2.21 microns | 3.43 microns | 4.23 microns | 4.96 microns | 5.82 microns | 6.37 microns | 8.11 microns | 0.95 μ | 2.21 μ | 4.23 μ | 4.96 μ | regular spherical shape and have smooth surface; also recorded: uniform spherical shape | did not exhibit any static electricity | did not exhibit a tendency to agglomerate; also recorded: did not exhibit any tendency to agglomerate; also recorded: that does not tend to agglomerate | crystalline morphology | 
CCC(=O)O[C@]1(C(=O)SCF)[C@H](C)C[C@H]2[C@@H]3C[C@H](F)C4=CC(=O)C=C[C@]4(C)[C@@]3(F)[C@@H](O)C[C@@]21C [Example 14, fluticasone propionate] | Free flowing crystalline powder | Particle size median: 2.14 microns; | 0.96 micron | 1.27 micron | 2.14 microns | 3.44 microns | 4.36 microns | 5.27 microns | 6.44 microns | 7.32 microns | 13.54 microns | 0.96 μ | 2.14 μ | 4.36 μ | 5.27 μ |  |  | did not exhibit a tendency to agglomerate; also recorded: that does not tend to agglomerate |  | 

Further lines, with some results ahead:

Powder characteristics (flow and morphology of the powder) [2] | Particle size median [3] | particle size D(0.10) [3] | particle size D(0.20) [3] | particle size D(0.50) [3] | particle size D(0.80) [3] | particle size D(0.90) [3] | particle size D(0.95) [3] | particle size D(0.98) [3] | particle size D(0.99) [3] | particle size D(1.00) [3] | Particle size distribution D(v, 0.1), 0.1 quantile [3] | Particle size distribution D(v, 0.5), 0.5 quantile [3] | Particle size distribution D(v, 0.9), 0.9 quantile [3] | Particle size distribution D(v, 0.95), 0.95 quantile [3] | SMILES | Particle shape (SEM micrograph) [1] | Electrostatic charge of the powder [2] | Tendency to agglomerate [2] | Morphology by X-ray powder diffraction pattern [4] | other results
Free flowing crystalline powder | Particle size median 2.67 microns; | 1.06 micron | 1.52 micron | 2.67 microns | 4.51 microns | 5.95 microns | 7.51 microns | 9.81 microns | 11.67 microns |  | 1.06 μ | 2.67 μ |  |  | CCC(=O)O[C@]1(C(=O)SCF)[C@H](C)C[C@H]2[C@@H]3C[C@H](F)C4=CC(=O)C=C[C@]4(C)[C@@]3(F)[C@@H](O)C[C@@]21C [Example 15, fluticasone propionate] |  |  | did not exhibit a tendency to agglomerate; also recorded: that does not tend to agglomerate |  | 
Partially amorphous powder | Particle size median 4.10 microns; | 1.90 micron | 2.46 micron | 4.11 microns | 6.70 microns | 8.40 microns | 9.86 microns | 11.35 microns | 12.10 microns | 14.24 microns | 1.90 μ | 4.11 μ and 4.10 μ | 8.40 μ and 8.39 μ | 9.86 μ | CCC(=O)O[C@]1(C(=O)SCF)[C@H](C)C[C@H]2[C@@H]3C[C@H](F)C4=CC(=O)C=C[C@]4(C)[C@@]3(F)[C@@H](O)C[C@@]21C [Example 16, fluticasone propionate] |  |  |  | low level of a crystalline morphology; also recorded: mostly amorphous morphology | particle size of the powder [3]: less than 10 microns
